Measurements taken from patent US10934276B2, “Positive allosteric modulators of the muscarinic acetylcholine receptor M4” (Vanderbilt University, priority 2016, dated 2021).

How the values were obtained:
[1] = target: T1, Human M4 (Homo sapiens, UniProt P08173); assay: mAChR M4 cell-based functional assay (calcium flux, potentiation of EC20 acetylcholine response in CHO-K1 hM4-Gqi5 cells); settings: for Emax at 30 µM: CHO-K1, % ACh maximum at 30 μM, human M4; for EC50: positive allosteric modulator mode, EC20 acetylcholine, CHO-K1 cells with human M4 and Gqi5
T1 construct: expressed in transfected cells; host or cells: CHO-K1 (ATCC), stably expressing hM4 and Gqi5
T1 sequence (P08173 1-479): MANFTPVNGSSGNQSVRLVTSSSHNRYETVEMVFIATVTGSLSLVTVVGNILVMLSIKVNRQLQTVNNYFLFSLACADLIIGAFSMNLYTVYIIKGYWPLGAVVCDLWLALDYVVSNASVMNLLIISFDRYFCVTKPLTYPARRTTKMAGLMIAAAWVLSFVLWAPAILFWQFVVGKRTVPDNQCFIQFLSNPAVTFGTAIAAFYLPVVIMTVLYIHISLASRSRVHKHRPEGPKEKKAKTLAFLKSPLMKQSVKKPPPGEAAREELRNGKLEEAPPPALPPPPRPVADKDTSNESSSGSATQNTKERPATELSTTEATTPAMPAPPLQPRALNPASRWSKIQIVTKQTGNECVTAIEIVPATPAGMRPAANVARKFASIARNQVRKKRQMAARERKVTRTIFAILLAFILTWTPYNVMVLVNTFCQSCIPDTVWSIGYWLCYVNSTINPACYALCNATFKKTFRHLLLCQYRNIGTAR
Protocol: Human M4 cDNA, along with the chimeric G protein Gqi5, were transfected into Chinese hamster ovary (CHO—K1) cells purchased from the American Type Culture Collection using Lipofectamine2000. hM4-Gqi5 cells were grown in Ham's F-12 medium containing 10% heat-inactivated fetal bovine serum (FBS), 20 mM HEPES, 50 μg/mL G418 sulfate, and 500 μg/mL Hygromycin B. rM4-Gqi5 cells were grown in DMEM containing 10% heat-inactivated FBS, 20 mM HEPES, 400 μg/mL G418 sulfate, and 500 μg/mL Hygromycin B.
For high throughput measurement of agonist-evoked increases in intracellular calcium, CHO—K1 cells stably expressing muscarinic receptors were plated in growth medium lacking G418 and hygromycin at 15,000 cells/20 μL/well in Greiner 384-well black-walled, tissue culture (TC)-treated, clear-bottom plates (VWR). Cells were incubated overnight at 37° C. and 5% CO2. The next day, cells were washed using an ELX 405 (BioTek) with assay buffer; the final volume was then aspirated to 20 μL. Next, 20 μL of a 2.3 μM stock of Fluo-4/acetoxymethyl ester (Invitrogen, Carlsbad, Calif.), prepared as a 2.3 mM stock in DMSO and mixed in a 1:1 ratio with 10% (w/v) Pluronic F-127 and diluted in assay buffer, was added to the wells and the cell plates were incubated for 50 min at 37° C. and 5% CO2. Dye was removed by washing with the ELX 405 and the final volume was aspirated to 20 μL. Compound master plates were formatted in an 11 point concentration-response curve (CRC) format (1:3 dilutions) in 100% DMSO with a starting concentration of 10 mM using a BRAVO liquid handler (Agilent). Test compound CRCs were then transferred to daughter plates (240 nL) using the Echo acoustic plate reformatter (Labcyte, Sunnyvale, Calif.) and then diluted into assay buffer (40 μL) to a 2× stock using a Thermo Fisher Combi (Thermo Fisher Scientific, Waltham, Mass.).
Calcium flux was measured using the Functional Drug Screening System (FDSS) 6000 or 7000 (Hamamatsu Corporation, Tokyo, Japan) as an increase in the fluorescent static ratio. Compounds were applied to cells (20 μL, 2×) using the automated system of the FDSS at 2-4 seconds into the protocol and the data were collected at 1 Hz. At 144 seconds, 10 μL of an EC20 concentration of the muscarinic receptor agonist acetylcholine was added (5×), followed by the addition of 12 μL of an EC80 concentration of acetylcholine at the 230 second time point (5×). Agonist activity was analyzed as a concentration-dependent increase in calcium mobilization upon compound addition. Positive allosteric modulator activity was analyzed as a concentration-dependent increase in the EC20 acetylcholine response. With the acetylcholine EC20 set as baseline, the test compound EC50 is determined as the concentration that produces an increase above baseline of 50% of the maximum increase in acetylcholine response elicted by the test compound. Antagonist activity was analyzed as a concentration-dependent decrease in the EC80 acetylcholine response. Concentration-response curves were generated using a four-parameter logistical equation in XLFit curve fitting software (IDBS, Bridgewater, N.J.) for Excel (Microsoft, Redmond, Wash.) or Prism (GraphPad Software, Inc., San Diego, Calif.).
Compounds were synthesized as described above. Activity (EC50 and Emax) was determined in the mAChR M4 cell-based functional assay as described above and the data are shown in Table 3. The compound numbers correspond to the compound numbers used in Examples 2-4 and Tables 1 and 2.

[2] = patients treated with AChE inhibitors such as tacrine; cited from earlier work

| SMILES | Emax at 30 µM [1] [%] | EC50 [1] [nM] | patients with elevated liver transaminases (hepatotoxicity) [2] |
| --- | --- | --- | --- |
| Cc1nnc2ccc(C(=O)NC3CN(c4ncc(C5CC5)cc4Cl)C3)cc2c1C [Compound 27, N-[1-(3-chloro-5-cyclopropyl-2-pyridyl)azetidin-3-yl]-3,4-dimethyl-cinnoline-6-carboxamide] | 77.2 | 1390 | – |
| Cc1nnc2ccc(C(=O)NC3CN(c4ncc(C(F)(F)F)cc4Cl)C3)cc2c1C [Compound 28, N-[1-[3-chloro-5-(trifluoromethyl)-2-pyridyl]azetidin-3-yl]-3,4-dimethyl-cinnoline-6-carboxamide] | 75.7 | 2630 | – |
| Cc1nnc2ccc(C(=O)NC3CN(c4ncc(C#N)cc4Cl)C3)cc2c1C [Compound 29, N-[1-(3-chloro-5-cyano-2-pyridyl)azetidin-3-yl]-3,4-dimethyl-cinnoline-6-carboxamide] | 71.6 | 300 | – |
| Cc1nnc2ccc(C(=O)NC3CN(c4cc(Cl)ncc4Cl)C3)cc2c1C [Compound 30, N-[1-(2,5-dichloro-4-pyridyl)azetidin-3-yl]-3,4-dimethyl-cinnoline-6-carboxamide] | 91.6 | 120 | – |
| Cc1nnc2ccc(C(=O)NC3CN(c4ccc(OC(F)F)nc4)C3)cc2c1C [Compound 31, N-[1-[6-(difluoromethoxy)-3-pyridyl]azetidin-3-yl]-3,4-dimethyl-cinnoline-6-carboxamide] | 80.8 | 1460 | – |
| Cc1nnc2ccc(C(=O)NC3CN(c4cccc(Cl)n4)C3)cc2c1C [Compound 32, N-[1-(6-chloro-2-pyridyl)azetidin-3-yl]-3,4-dimethyl-cinnoline-6-carboxamide] | 77.2 | 1320 | – |
| Cc1nnc2ccc(C(=O)NC3CN(c4cccc(F)n4)C3)cc2c1C [Compound 33, N-[1-(6-fluoro-2-pyridyl)azetidin-3-yl]-3,4-dimethyl-cinnoline-6-carboxamide] | 84.5 | 670 | – |
| Cc1nnc2ccc(C(=O)NC3CN(c4ncccc4F)C3)cc2c1C [Compound 34, N-[1-(3-fluoro-2-pyridyl)azetidin-3-yl]-3,4-dimethyl-cinnoline-6-carboxamide] | 83.4 | 1220 | – |
| Cc1nnc2ccc(C(=O)NC3CN(c4ncccc4Cl)C3)cc2c1C [Compound 35, N-[1-(3-chloro-2-pyridyl)azetidin-3-yl]-3,4-dimethyl-cinnoline-6-carboxamide] | 83.7 | 950 | – |
| Cc1nnc2ccc(C(=O)NC3CN(c4ncc(Cl)cc4F)C3)cc2c1C [Compound 36, N-[1-(5-chloro-3-fluoro-2-pyridyl)azetidin-3-yl]-3,4-dimethyl-cinnoline-6-carboxamide] | 82 | 650 | – |
| Cc1nnc2ccc(C(=O)NC3CN(c4ccnc(C(F)(F)F)c4)C3)cc2c1C [Compound 37, 3,4-dimethyl-N-[1-[2-(trifluoromethyl)-4-pyridyl]azetidin-3-yl]cinnoline-6-carboxamide] | 88 | 750 | – |
| Cc1nnc2ccc(C(=O)NC3CN(c4cccc(C(F)(F)F)n4)C3)cc2c1C [Compound 38, 3,4-dimethyl-N-[1-[6-(trifluoromethyl)-2-pyridyl]azetidin-3-yl]cinnoline-6-carboxamide] | 64.2 | 3360 | – |
| Cc1nnc2ccc(C(=O)NC3CC3)cc2c1C [Compound 39, N-cyclopropyl-3,4-dimethyl-cinnoline-6-carboxamide] | 82.6 | > 10000 | – |
| Cc1nnc2ccc(C(=O)NC3CC(F)C3)cc2c1C (stereo not shown) [Compound 40, N-(3-fluorocyclobutyl)-3,4-dimethyl-cinnoline-6-carboxamide] | 59.3 | > 10000 | – |
| Cc1nnc2ccc(C(=O)NC3CCCC3)cc2c1C [Compound 41, N-cyclopentyl-3,4-dimethyl-cinnoline-6-carboxamide] | 53.5 | > 10000 | – |
| Nc1c2c(nc3ccccc13)CCCC2 [tacrine] | – | – | about 30% |
